The text below walks through data of BindingDB's records for doi:10.1016/s0960-894x(98)00691-x (Novartis Pharmaceuticals, 1999).

The assay can be described thus: Inhibition of Cyclin-dependent kinase 1, CDK1-related human bladder carcinoma (T24) cell proliferation.

Molecules are shown by their SMILES.

In general, IC50 refers to the concentration that gives 50% inhibition. The compound `CCn1cnc2c(Nc3cccc(Cl)c3)nc(N[C@H]3CC[C@@H](O)CC3)nc21` [4-[6-(3-Chloro-phenylamino)-9-ethyl-9H-purin-2-ylamino]-cyclohexanol] returned an IC50 of 830 nM.
